From patent publication US8729082B2, “Substituted imidazoquinoxalines” (Bayer Intellectual Property GmbH, priority 2009, dated 2014)

Target: T1, human kinase Mps-1 (Homo sapiens, UniProt P33981)
T1 construct: N-terminally GST-tagged human full length recombinant Mps-1 kinase; purchased Invitrogen, Karslruhe, Germany PV4071
T1 sequence (P33981 1-857): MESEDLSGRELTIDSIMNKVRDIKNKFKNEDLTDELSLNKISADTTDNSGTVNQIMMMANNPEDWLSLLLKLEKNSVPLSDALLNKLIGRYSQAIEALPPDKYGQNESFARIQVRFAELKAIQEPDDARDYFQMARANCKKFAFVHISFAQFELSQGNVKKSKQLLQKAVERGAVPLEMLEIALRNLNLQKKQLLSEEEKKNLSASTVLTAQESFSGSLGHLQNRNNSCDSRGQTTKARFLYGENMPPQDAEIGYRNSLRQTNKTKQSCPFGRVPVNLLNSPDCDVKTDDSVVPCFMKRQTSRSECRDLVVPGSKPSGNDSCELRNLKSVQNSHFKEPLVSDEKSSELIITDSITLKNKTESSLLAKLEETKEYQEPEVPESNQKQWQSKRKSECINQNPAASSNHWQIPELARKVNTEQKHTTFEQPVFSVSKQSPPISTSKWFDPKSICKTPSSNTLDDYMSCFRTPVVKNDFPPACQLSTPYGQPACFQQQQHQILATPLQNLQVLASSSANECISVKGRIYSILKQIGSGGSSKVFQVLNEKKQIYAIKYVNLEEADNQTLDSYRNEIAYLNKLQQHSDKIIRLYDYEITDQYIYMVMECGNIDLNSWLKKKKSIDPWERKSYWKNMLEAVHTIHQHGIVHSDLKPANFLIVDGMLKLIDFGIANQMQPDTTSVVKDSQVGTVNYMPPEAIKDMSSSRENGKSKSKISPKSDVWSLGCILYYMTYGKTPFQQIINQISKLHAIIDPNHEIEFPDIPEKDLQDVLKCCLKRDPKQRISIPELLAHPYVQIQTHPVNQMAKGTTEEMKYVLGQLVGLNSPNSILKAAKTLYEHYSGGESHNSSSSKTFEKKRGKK
Test: Mps-1 kinase assay (HTRF)
Type: biochemical
Conditions: lowATP; mean; read-out: Mps1 lowATP mean IC50
Procedure, shortened: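 HTRF readout: EDTA-stopped reactions incubated 1 h with europium anti-phospho(Ser/Thr) antibody and streptavidin-XLent, emission ratio 665/620 nm after 350 nm excitation. Kinase step: compound pre-bound 15 min to ~1 nM GST-Mps-1, then 60 min at 22 °C with ATP and biotin-peptide substrate; inhibition scaled between no-inhibitor (0%) and no-enzyme (100%) controls.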

Point of comparison: CNC(=O)Nc1ccc(-c2cnc3c(NCc4ccccc4)nc4cc(C)c(C)cc4n23)cc1 [Example 2-166, 1-{4-[4-(benzylamino)-7,8-dimethylimidazo[1,2-a]quinoxalin-1-yl]phenyl}-3-methylurea], IC50 609 nM. Against it:
- NC(=O)CCNc1nc2cc(F)c(F)cc2n2c(-c3ccc(C(=O)NC4CC4)c(Cl)c3)cnc12 [Example 2-138, 4-{4-[(3-amino-3-oxopropyl)amino]-7,8-difluoroimidazo[1,2-a]quinoxalin-1-yl}-2-chloro-N-cyclopropylbenzamide] — 18-fold higher, 11200 nM
- COCCCNc1nc2cc(F)c(F)cc2n2c(-c3ccc(C(=O)NC4CC4)c(Cl)c3)cnc12 [Example 2-139, 2-chloro-N-cyclopropyl-4-{7,8-difluoro-4-[(3-methoxypropyl)amino]imidazo[1,2-a]quinoxalin-1-yl}benzamide] — 6.3-fold higher, 3850 nM
- CC(C)(C)OC(=O)NCCCNc1nc2cc(F)c(F)cc2n2c(-c3ccc(C(=O)NC4CC4)c(Cl)c3)cnc12 [Example 2-140, tert-butyl [3-({1-[3-chloro-4-(cyclopropylcarbamoyl)phenyl]-7,8-difluoroimidazo[1,2-a]quinoxalin-4-yl}amino)propyl]carbamate] — 5.6-fold higher, 3410 nM
- Cn1ccc(CNc2nc3cc(F)c(F)cc3n3c(-c4ccc(C(=O)NC5CC5)c(Cl)c4)cnc23)n1 [Example 2-141, 2-chloro-N-cyclopropyl-4-(7,8-difluoro-4-{[(1-methyl-1H-pyrazol-3-yl)methyl]amino}imidazo[1,2-a]quinoxalin-1-yl)benzamide] — 7.3-fold higher, 4450 nM
- Cn1cc(CNc2nc3cc(F)c(F)cc3n3c(-c4ccc(C(=O)NC5CC5)c(Cl)c4)cnc23)cn1 [Example 2-142, 2-chloro-N-cyclopropyl-4-(7,8-difluoro-4-{[(1-methyl-1H-pyrazol-4-yl)methyl]amino}imidazo[1,2-a]quinoxalin-1-yl)benzamide] — 3.7-fold higher, 2280 nM
- NS(=O)(=O)CCNc1nc2cc(F)c(F)cc2n2c(-c3ccc(C(=O)NC4CC4)c(Cl)c3)cnc12 [Example 2-143, 2-chloro-N-cyclopropyl-4-{7,8-difluoro-4-[(2-sulfamoylethyl)amino]imidazo[1,2-a]quinoxalin-1-yl}benzamide] — 2-fold higher, 1240 nM
- CCCNc1nc2cc(C)c(C)cc2n2c(-c3ccc(C(=O)NC4CC4)cc3)cnc12 [Example 2-144, N-cyclopropyl-4-[7,8-dimethyl-4-(propylamino)imidazo[1,2-a]quinoxalin-1-yl]benzamide] — 150-fold lower, 4.15 nM
- Cc1cc2nc(NCCC(C)C)c3ncc(-c4ccc(C(=O)NC5CC5)cc4)n3c2cc1C [Example 2-145, N-cyclopropyl-4-{7,8-dimethyl-4-[(3-methylbutyl)amino]imidazo[1,2-a]quinoxalin-1-yl}benzamide] — 110-fold lower, 5.61 nM
- Cc1cc2nc(NCCCCO)c3ncc(-c4ccc(C(=O)NC5CC5)cc4)n3c2cc1C [Example 2-146, N-cyclopropyl-4-{4-[(4-hydroxybutyl)amino]-7,8-dimethylimidazo[1,2-a]quinoxalin-1-yl}benzamide] — 220-fold lower, 2.83 nM
- CCNc1nc2cc(C)c(C)cc2n2c(-c3ccc(C(=O)NC4CC4)cc3)cnc12 [Example 2-147, N-cyclopropyl-4-[4-(ethylamino)-7,8-dimethylimidazo[1,2-a]quinoxalin-1-yl]benzamide] — 140-fold lower, 4.5 nM
- Cc1cc2nc(NCCCO)c3ncc(-c4ccc(C(=O)NC5CC5)cc4)n3c2cc1C [Example 2-148, N-cyclopropyl-4-{4-[(3-hydroxypropyl)amino]-7,8-dimethylimidazo[1,2-a]quinoxalin-1-yl}benzamide] — 100-fold lower, 5.92 nM
- CCCCNc1nc2cc(C)c(C)cc2n2c(-c3ccc(C(=O)NC4CC4)cc3)cnc12 [Example 2-149, 4-[4-(butylamino)-7,8-dimethylimidazo[1,2-a]quinoxalin-1-yl]-N-cyclopropylbenzamide] — 210-fold lower, 2.86 nM
- Cc1cc2nc(NCC3CC3)c3ncc(-c4ccc(C(=O)NC5CC5)cc4)n3c2cc1C [Example 2-150, N-cyclopropyl-4-{4-[(cyclopropylmethyl)amino]-7,8-dimethylimidazo[1,2-a]quinoxalin-1-yl}benzamide] — 230-fold lower, 2.64 nM
- Cc1cc2nc(NCc3ccccn3)c3ncc(-c4ccc(C(=O)NC5CC5)cc4)n3c2cc1C [Example 2-151, N-cyclopropyl-4-{7,8-dimethyl-4-[(pyridin-2-ylmethyl)amino]imidazo[1,2-a]quinoxalin-1-yl}benzamide] — 31-fold lower, 19.5 nM
- Cc1cc2nc(NCc3cccnc3)c3ncc(-c4ccc(C(=O)NC5CC5)cc4)n3c2cc1C [Example 2-152, N-cyclopropyl-4-{7,8-dimethyl-4-[(pyridin-3-ylmethyl)amino]imidazo[1,2-a]quinoxalin-1-yl}benzamide] — 100-fold lower, 6.01 nM
- Cc1cc2nc(NCc3ccco3)c3ncc(-c4ccc(C(=O)NC5CC5)cc4)n3c2cc1C [Example 2-153, N-cyclopropyl-4-{4-[(furan-2-ylmethyl)amino]-7,8-dimethylimidazo[1,2-a]quinoxalin-1-yl}benzamide] — 120-fold lower, 5.22 nM
- Cc1cc2nc(NCC(C)C)c3ncc(-c4ccc(C(=O)NC5CC5)cc4)n3c2cc1C [Example 2-154, N-cyclopropyl-4-{7,8-dimethyl-4-[(2-methylpropyl)amino]imidazo[1,2-a]quinoxalin-1-yl}benzamide] — 270-fold lower, 2.22 nM
- COCCCNc1nc2cc(C)c(C)cc2n2c(-c3ccc(C(=O)NC4CC4)cc3)cnc12 [Example 2-155, N-cyclopropyl-4-{4-[(3-methoxypropyl)amino]-7,8-dimethylimidazo[1,2-a]quinoxalin-1-yl}benzamide] — 79-fold lower, 7.71 nM
- Cc1cc2nc(NCc3ccn(C)n3)c3ncc(-c4ccc(C(=O)NC5CC5)cc4)n3c2cc1C [Example 2-156, N-cyclopropyl-4-(7,8-dimethyl-4-{[(1-methyl-1H-pyrazol-3-yl)methyl]amino}imidazo[1,2-a]quinoxalin-1-yl)benzamide] — 72-fold lower, 8.49 nM
- Cc1cc2nc(NCc3cnn(C)c3)c3ncc(-c4ccc(C(=O)NC5CC5)cc4)n3c2cc1C [Example 2-157, N-cyclopropyl-4-(7,8-dimethyl-4-{[(1-methyl-1H-pyrazol-4-yl)methyl]amino}imidazo[1,2-a]quinoxalin-1-yl)benzamide] — 110-fold lower, 5.44 nM
- CCCNc1nc2cc(C)c(C)cc2n2c(-c3ccc(NC(=O)NC)cc3)cnc12 [Example 2-159, 1-{4-[7,8-dimethyl-4-(propylamino)imidazo[1,2-a]quinoxalin-1-yl]phenyl}-3-methylurea] — 3.7-fold lower, 163 nM
- CNC(=O)Nc1ccc(-c2cnc3c(NCCCN4CCOCC4)nc4cc(C)c(C)cc4n23)cc1 [Example 2-160, 1-[4-(7,8-dimethyl-4-{[3-(morpholin-4-yl)propyl]amino}imidazo[1,2-a]quinoxalin-1-yl)phenyl]-3-methylurea] — 1.6-fold higher, 982 nM
- CNC(=O)Nc1ccc(-c2cnc3c(NCc4cccc(F)c4)nc4cc(C)c(C)cc4n23)cc1 [Example 2-161, 1-(4-{4-[(3-fluorobenzyl)amino]-7,8-dimethylimidazo[1,2-a]quinoxalin-1-yl}phenyl)-3-methylurea] — 2.2-fold higher, 1310 nM
- CNC(=O)Nc1ccc(-c2cnc3c(NCCOC)nc4cc(C)c(C)cc4n23)cc1 [Example 2-162, 1-(4-{4-[(2-methoxyethyl)amino]-7,8-dimethylimidazo[1,2-a]quinoxalin-1-yl}phenyl)-3-methylurea] — within 1.5-fold, 417 nM
- CNC(=O)Nc1ccc(-c2cnc3c(NCc4ccccc4F)nc4cc(C)c(C)cc4n23)cc1 [Example 2-163, 1-(4-{4-[(2-fluorobenzyl)amino]-7,8-dimethylimidazo[1,2-a]quinoxalin-1-yl}phenyl)-3-methylurea] — 2.4-fold higher, 1470 nM
- CNC(=O)Nc1ccc(-c2cnc3c(NCc4ccc(F)cc4)nc4cc(C)c(C)cc4n23)cc1 [Example 2-164, 1-(4-{4-[(4-fluorobenzyl)amino]-7,8-dimethylimidazo[1,2-a]quinoxalin-1-yl}phenyl)-3-methylurea] — within 1.5-fold, 414 nM
- CNC(=O)Nc1ccc(-c2cnc3c(NCCCCO)nc4cc(C)c(C)cc4n23)cc1 [Example 2-165, 1-(4-{4-[(4-hydroxybutyl)amino]-7,8-dimethylimidazo[1,2-a]quinoxalin-1-yl}phenyl)-3-methylurea] — 2.3-fold lower, 265 nM
- CNC(=O)Nc1ccc(-c2cnc3c(NCc4cccs4)nc4cc(C)c(C)cc4n23)cc1 [Example 2-167, 1-(4-{7,8-dimethyl-4-[(thiophen-2-ylmethyl)amino]imidazo[1,2-a]quinoxalin-1-yl}phenyl)-3-methylurea] — within 1.5-fold, 469 nM
- CCNc1nc2cc(C)c(C)cc2n2c(-c3ccc(NC(=O)NC)cc3)cnc12 [Example 2-168, 1-{4-[4-(ethylamino)-7,8-dimethylimidazo[1,2-a]quinoxalin-1-yl]phenyl}-3-methylurea] — 4.5-fold lower, 134 nM
